Reference: ChEMBL document CHEMBL2346569, “Synthesis and biological evaluation of pyridazine derivatives as novel HIV-1 NNRTIs” (Bioorg Med Chem, 2013)

Experiments:
[1] = Cytotoxicity against mock-infected human MT4 cells assessed as cell viability after 5 days by MTT assay; format: cell-based
[2] = test system: Human immunodeficiency virus 2; experiment: Antiviral activity against HIV2 ROD infected in human MT4 cells assessed as protection against virus-induced cytopathicity after 5 days by MTT assay; format: functional, organism-based, ISOLATE ROD
[3] = test system: Human immunodeficiency virus 1; experiment: Antiviral activity against HIV1 RES056 harboring reverse transcriptase K103N/Y181C double mutant infected in human MT4 cells assessed as protection against virus-induced cytopathicity after 5 days by MTT assay; format: functional, organism-based
[4] = Selectivity index, ratio of CC50 for mock-infected human MT4 cells to EC50 for wild type HIV1 3B
[5] = test system: Human immunodeficiency virus 1; experiment: Antiviral activity against wild type HIV1 3B infected in human MT4 cells assessed as protection against virus-induced cytopathicity after 5 days by MTT assay; format: functional, organism-based; details: Human immunodeficiency virus 1, 3B, MT4, 120 h
[6] = test system: Human immunodeficiency virus 1; experiment: Antiviral activity against wild type HIV1 LAI infected in human MT4 cells assessed as protection against virus-induced cytopathicity after 5 days by MTT assay; format: functional, organism-based; details: Human immunodeficiency virus 1, LAI, MT4, 120 h
[7] = test system: Human immunodeficiency virus 1; experiment: Antiviral activity against HIV1 harboring reverse transcriptase L100I/K103N double mutant infected in human MT4 cells assessed as protection against virus-induced cytopathicity after 5 days by MTT assay; format: functional, organism-based; details: Human immunodeficiency virus 1, MT4, 120 h
[8] = test system: Human immunodeficiency virus 1; experiment: Antiviral activity against HIV1 harboring reverse transcriptase K103N/Y181C double mutant infected in human MT4 cells assessed as protection against virus-induced cytopathicity after 5 days by MTT assay; format: functional, organism-based; details: Human immunodeficiency virus 1, MT4, 120 h
[9] = target: Human immunodeficiency virus type 1 reverse transcriptase (Human immunodeficiency virus 1, UniProt Q72547); experiment: Inhibition of HIV 1 reverse transcriptase assessed as incorporation of biotin-dUTP into poly rA.dT by ELISA

| SMILES | CC50 at 120 h [1] | EC50 ([2]; mt4) | EC50 ([3]; mt4) | selectivity ratio ([4]; mock-infected MT4 cells) | EC50 [5] | EC50 [6] | EC50 [7] | EC50 [8] | IC50 [9] | EC50 ([2]; Human immunodeficiency virus 2, ISOLATE ROD, MT4, 120 h, read-out: EC50) | EC50 ([3]; Human immunodeficiency virus 1, RES056, MT4, 120 h, read-out: EC50) | selectivity ratio ([4]; mt4) |
| --- | --- | --- | --- | --- | --- | --- | --- | --- | --- | --- | --- | --- |
| N#Cc1ccc(Nc2cc(Oc3c(Cl)cc(Cl)cc3Cl)c(Cl)nn2)cc1 | 18.6 µM | Not Active | Not Active | 120 | 155 nM |  |  |  |  |  |  |  |
| Cc1cccc(C)c1Oc1cc(Nc2ccc(C#N)cc2)n[nH]c1=O | 205 µM | Not Active | Not Active | 108 | 1900 nM |  |  |  |  |  |  |  |
| Cc1cc(C#N)cc(C)c1Oc1nc(Nc2ccc(C#N)cc2)c(=O)n(C)c1C |  |  |  |  |  | 6 nM | 158 nM | 61 nM |  |  |  |  |
| COc1ccc(Nc2cc(Oc3c(C)cc(C)cc3C)c(=O)[nH]n2)cc1 | 5.88 µM | Not Active | Not Active | 4 | 1590 nM |  |  |  |  |  |  |  |
| Cc1cc(C)c(Oc2cc(Nc3ccc([N+](=O)[O-])cc3)nnc2Cl)c(C)c1 | 0.94 µM | Not Active | Not Active | < 1 | > 940 nM |  |  |  |  |  |  |  |
| Cc1cc(Br)cc(C)c1Oc1cc(Nc2ccc(C#N)cc2)n[nH]c1=O | 19.5 µM | Not Active | Not Active | 16 | 1190 nM |  |  |  |  |  |  |  |
| Cc1cccc(C)c1Oc1cc(Nc2ccc(C#N)cc2)nnc1Cl | 290 µM | Not Active | Not Active | 537 | 540 nM |  |  |  |  |  |  |  |
| Cc1cc(Br)cc(C)c1Oc1cc(Nc2ccc(C#N)cc2)nnc1Cl | 84.1 µM | Not Active | Not Active | 210 | 400 nM |  |  |  |  |  |  |  |
| Cc1cc(C)c(Oc2cc(Nc3cccc(Cl)c3)n[nH]c2=O)c(C)c1 | 119 µM | Not Active | Not Active | 8 | 14400 nM |  |  |  |  |  |  |  |
| Cc1cc(C#N)cc(C)c1Oc1cc(Nc2ccc(C#N)cc2)nnc1Cl | 53.2 µM | Not Active | Not Active | 369 | 144 nM |  |  |  |  |  |  |  |
| Cc1cc(C)c(Oc2cc(Nc3ccc(C#N)cc3)n[nH]c2=O)c(C)c1 | 47 µM | Not Active | Not Active | 180 | 260 nM |  |  |  |  |  |  |  |
| COc1cccc(OC)c1Oc1cc(Nc2ccc(C#N)cc2)nnc1Cl | 2.9 µM | Not Active | Not Active | < 1 | > 2900 nM |  |  |  |  |  |  |  |
| Cc1ccc(Nc2cc(Oc3c(C)cc(C)cc3C)c(=O)[nH]n2)cc1 | 185 µM | Not Active | Not Active | 119 | 1550 nM |  |  |  |  |  |  |  |
| Cc1cc(C)c(Oc2cc(Nc3ccc(Cl)cc3)nnc2Cl)c(C)c1 | 210 µM | Not Active | Not Active | 1510 | 139 nM |  |  |  |  |  |  |  |
| Cc1ccnc2c1NC(=O)c1cccnc1N2C1CC1 [NEVIRAPINE] | > 14.9 µM | Not Active | Not Active |  |  |  |  |  |  |  |  |  |
| Cc1cc(Br)c(Oc2cc(Nc3ccc(C#N)cc3)n[nH]c2=O)c(Br)c1 | 154 µM | Not Active | Not Active | 733 | 210 nM |  |  |  |  |  |  |  |

| SMILES | CC50 at 120 h [1] | EC50 ([2]; mt4) | EC50 ([3]; mt4) | selectivity ratio ([4]; mock-infected MT4 cells) | EC50 [5] | EC50 [6] | EC50 [7] | EC50 [8] | IC50 [9] | EC50 ([2]; Human immunodeficiency virus 2, ISOLATE ROD, MT4, 120 h, read-out: EC50) | EC50 ([3]; Human immunodeficiency virus 1, RES056, MT4, 120 h, read-out: EC50) | selectivity ratio ([4]; mt4) |
| --- | --- | --- | --- | --- | --- | --- | --- | --- | --- | --- | --- | --- |
| N#Cc1ccc(Nc2cc(Oc3c(Br)cc(Br)cc3Br)c(Cl)nn2)cc1 | 22.3 µM | Not Active | Not Active | 124 | 180 nM |  |  |  |  |  |  |  |
| Cc1cc(C)c(Oc2cc(Nc3ccc([N+](=O)[O-])cc3)n[nH]c2=O)c(C)c1 | 37.1 µM | Not Active | Not Active | 7 | 5080 nM |  |  |  |  |  |  |  |
| Cc1cc(C)c(Oc2cc(Nc3ccc(Cl)cc3)n[nH]c2=O)c(C)c1 | 5.98 µM | Not Active | Not Active | 8 | 780 nM |  |  |  |  |  |  |  |
| N#Cc1ccc(Nc2cc(Oc3c(Cl)cccc3Cl)c(Cl)nn2)cc1 | 93.1 µM | Not Active | Not Active | 423 | 220 nM |  |  |  |  |  |  |  |
| Cc1ccc(Nc2cc(Oc3c(C)cc(C)cc3C)c(Cl)nn2)cc1 | 244 µM | Not Active | Not Active | 1210 | 201 nM |  |  |  |  |  |  |  |
| N#Cc1ccc(Nc2cc(Oc3c(Br)cc(Br)cc3Br)c(=O)[nH]n2)cc1 | 139 µM | Not Active | Not Active | 221 | 630 nM |  |  |  |  |  |  |  |
| Cc1cc(C#N)cc(C)c1Oc1cc(Nc2ccc(C#N)cc2)n[nH]c1=O | 272 µM | Not Active | Not Active | 96 | 2830 nM |  |  |  |  |  |  |  |
| Cc1cc(C)c(Oc2cc(N(C)c3ccc(C#N)cc3)nn(C)c2=O)c(C)c1 | ≥ 246 µM | Not Active | Not Active | ≥ 73 | 3360 nM |  |  |  |  |  |  |  |
| Cc1cc(C)c(Oc2cc(Nc3ccc(C#N)cc3)nnc2Cl)c(C)c1 | 36.3 µM | Not Active | Not Active | 461 | 79 nM |  |  |  |  |  |  |  |
| Cc1cc(C)c(Oc2cc(Nc3ccc(C#N)cc3)nn(C)c2=O)c(C)c1 | 143 µM | Not Active | Not Active | 123 | 1160 nM |  |  |  |  |  |  |  |
| Cc1cc(Br)c(Oc2cc(Nc3ccc(C#N)cc3)nnc2Cl)c(Br)c1 | 19.2 µM | Not Active | Not Active | 565 | 34 nM |  |  |  | 3.18 µM |  |  |  |
| Cc1cc(C#N)cc(C)c1Oc1ccc(=O)n(Nc2ccc(C#N)cc2)n1 |  |  |  |  |  | 1750 nM |  |  |  |  |  |  |
| CC(C)Nc1cccnc1N1CCN(C(=O)c2cc3cc(NS(C)(=O)=O)ccc3[nH]2)CC1 [DELAVIRDINE] | > 43.4 µM | Not Active | Not Active | > 1030 | 42 nM |  |  |  |  |  |  |  |
| O=C1Nc2ccc(Cl)cc2[C@@](C#CC2CC2)(C(F)(F)F)O1 [EFAVIRENZ] | > 2 µM |  |  |  | 7 nM |  |  |  |  | 20 nM | 590 nM | > 286 |
| Cc1cc(C#N)cc(C)c1Oc1nc(Nc2ccc(C#N)cc2)nc(N)c1Br [ETRAVIRINE] | > 4.6 µM | Not Active |  |  |  |  |  |  |  |  |  |  |
| N#Cc1ccc(Nc2cc(Oc3c(Cl)cc(Cl)cc3Cl)c(=O)[nH]n2)cc1 | 35 µM | Not Active | Not Active |  | ≥ 9200 nM |  |  |  |  |  |  |  |
